Results taken from patent publication US20220274954A1, “SUBSTITUTED N-PHENYL-N-AMINOUARCILS AND SALTS THEREOF AND USE THEREOF AS HERBICIDAL AGENTS” (Bayer Aktiengesellschaft, priority 2019, published 2022).

Tests used:
Type in all cases: in vivo
[1] = test system: Brassica napus; test: Post-emergence crop plant compatibility
How it was run: (§1)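 Greenhouse plants in sandy loam were sprayed at the one-leaf stage, 2–3 weeks after sowing, with WP or EC formulations in water plus 0.5% additive at […]. Damage was rated visually after about 3 weeks as % versus untreated controls, where 100% means dead plants and 0% means like controls.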

[2] = test system: Triticum aestivum; test: Post-emergence crop plant compatibility
How it was run: as §1

[3] = test system: Oryza sativa; test: Post-emergence crop plant compatibility
How it was run: as §1

[4] = test system: Alopecurus myosuroides; test: Pre-emergence herbicidal action; conditions: application rate 80 g/ha
Excerpt: (§2) Seeds of monocotyledonous and dicotyledonous weed plants and crop plants were placed in plastic or organic planting pots and covered with soil. The compounds of the invention, formulated in the form of wettable powders (WP) or as emulsion concentrates (EC), were then applied to the surface of the covering soil as aqueous suspension or emulsion with addition of 0.5% additive at a water application rate equivalent to […] (converted). After the treatment, the pots were placed in a greenhouse and kept under good growth conditions for the test plants. After about 3 weeks, the effect of the preparations was scored visually in comparison with untreated controls as percentages. For example, 100% activity=the plants have died, 0% activity=like control plants.
(§3) Tables B1 to B11 below show the effects of selected compounds of the general formula (I) according to Tables I.1 to I.34 on various harmful plants and at an application rate corresponding to 80 g/ha and less, which were obtained by the experimental procedure mentioned above.

[5] = test system: Digitaria sanguinalis; test: Pre-emergence herbicidal action; conditions: scored after about 3 weeks
Excerpt: as §2, §3

[6] = test system: Matricaria inodora; test: Pre-emergence herbicidal action; conditions: scored after about 3 weeks
Excerpt: as §2, §3

[7] = test system: Setaria viridis; test: Pre-emergence herbicidal action; conditions: scored after about 3 weeks
Excerpt: as §2, §3

[8] = test system: Pharbitis purpurea; test: Pre-emergence herbicidal action; conditions: application rate 80 g/ha, scored after about 3 weeks
Excerpt: as §2, §3

[9] = test system: Echinochloa crus-galli; test: Pre-emergence herbicidal action; conditions: application rate 80 g/ha, scored after about 3 weeks
Excerpt: as §2, §3

[10] = test system: Abutilon theophrasti; test: Pre-emergence herbicidal action; conditions: application rate 80 g/ha, scored after about 3 weeks
Excerpt: as §2, §3

[11] = test system: Amaranthus retroflexus; test: Pre-emergence herbicidal action; conditions: scored after about 3 weeks
Excerpt: as §2, §3

[12] = test system: Polygonum convolvulus; test: Pre-emergence herbicidal action; conditions: scored after about 3 weeks
Excerpt: as §2, §3

[13] = test system: Viola tricolor; test: Pre-emergence herbicidal action; conditions: scored after about 3 weeks
Excerpt: as §2, §3

[14] = test system: Veronica persica; test: Pre-emergence herbicidal action; conditions: scored after about 3 weeks
Excerpt: as §2, §3

[15] = test system: Matricaria inodora; test: Post-emergence herbicidal action; conditions: Tripleurospermum inodorum, 504 h, read-out: Matricaria inodora (efficacy in %); for pest or weed control at 5 g/ha: application rate 5 g/ha
How it was run: (§4)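 Plants grown from seed in sandy loam in the greenhouse were sprayed at the one-leaf stage, 2 to 3 weeks after sowing, with WP or EC formulations in water plus 0.5% additive at 20 g/ha or less. Activity was rated visually after about 3 weeks against untreated controls (100% = plants died, 0% = like control).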

[16] = test system: Setaria viridis; test: Post-emergence herbicidal action; conditions: 504 h, read-out: Setaria viridis (efficacy in %); for pest or weed control at 5 g/ha: application rate 5 g/ha
How it was run: as §4

[17] = test system: Pharbitis purpurea; test: Post-emergence herbicidal action; conditions: Ipomoea purpurea, 504 h, application rate 5 g/ha, read-out: Pharbitis purpurea (efficacy in %)
How it was run: as §4

[18] = test system: Abutilon theophrasti; test: Post-emergence herbicidal action; conditions: Abutilon theophrasti, 504 h, read-out: Abutilon theophrasti (efficacy in %); for pest or weed control at 5 g/ha: application rate 5 g/ha
How it was run: as §4

[19] = test system: Polygonum convolvulus; test: Post-emergence herbicidal action; conditions: Fallopia convolvulus, 504 h, read-out: Polygonum convolvulus (efficacy in %)
How it was run: as §4

[20] = test system: Veronica persica; test: Post-emergence herbicidal action; conditions: Veronica persica, 504 h, read-out: Veronica persica (efficacy in %); for pest or weed control at 5 g/ha: application rate 5 g/ha
How it was run: as §4

[21] = test system: Brassica napus; test: Pre-emergence crop plant compatibility; conditions: application rate 20 g/ha
Excerpt: as §2
(§5) Here, the observed effects on selected crop plants are stated in comparison to the untreated controls (values in %).

[22] = test system: Glycine max; test: Pre-emergence crop plant compatibility; conditions: application rate 80 g/ha
Excerpt: as §2, §5

[23] = test system: Triticum aestivum; test: Pre-emergence crop plant compatibility; conditions: application rate 20 g/ha
Excerpt: as §2, §5

[24] = test system: Zea mays; test: Pre-emergence crop plant compatibility
Excerpt: as §2, §5

[25] = test system: Glycine max; test: Post-emergence crop plant compatibility
How it was run: as §1

[26] = test system: Zea mays; test: Post-emergence crop plant compatibility; conditions: application rate 1.25 g/ha
How it was run: as §1

[27] = test system: Lolium rigidum; test: Pre-emergence herbicidal action; conditions: application rate 80 g/ha, scored after about 3 weeks
Excerpt: as §2, §3

[28] = test system: Stellaria media; test: Post-emergence herbicidal action; conditions: application rate 20 g/ha
How it was run: as §4

[29] = test system: Digitaria sanguinalis; test: Post-emergence herbicidal action; conditions: 504 h, application rate 20 g/ha, read-out: Digitaria sanguinalis (efficacy in %)
How it was run: as §4

[30] = test system: Echinochloa crus-galli; test: Post-emergence herbicidal action; conditions: Echinochloa crus-galli, 504 h, read-out: Echinochloa crus-galli (efficacy in %)
How it was run: as §4

[31] = test system: Amaranthus retroflexus; test: Post-emergence herbicidal action; conditions: Amaranthus retroflexus, 504 h, read-out: Amaranthus retroflexus (efficacy in %)
How it was run: as §4

[32] = test system: Viola tricolor; test: Post-emergence herbicidal action; conditions: Viola tricolor, 504 h, read-out: Viola tricolor (efficacy in %)
How it was run: as §4

CCOC(=O)CCOc1ncccc1Sc1cc(-n2c(=O)cc(C(F)(F)F)n(N)c2=O)c(F)cc1Cl [I.5-442, Ethyl 3-{[3-({5-[3-amino-2,6-dioxo-4-(trifluoromethyl)-3,6-dihydropyrimidin-1(2H)-yl]-2-chloro-4-fluorophenyl}sulfanyl)pyridin-2-yl]oxy}propanoate]
Brassica napus (efficacy in %) [1]: 0%
Brassica napus (efficacy in %) ([1]; application rate 5 g/ha): 20%
Triticum aestivum (efficacy in %) ([2]; application rate 1.25 g/ha): 10%
Triticum aestivum (efficacy in %) ([2]; application rate 5 g/ha): 20%
Oryza sativa (efficacy in %) ([3]; application rate 5 g/ha): 20%
Alopecurus myosuroides (efficacy in %) [4]: 80%
Digitaria sanguinalis (efficacy in %) ([5]; application rate 80 g/ha): 80%
Matricaria inodora (efficacy in %) ([6]; application rate 80 g/ha): 90%
Setaria viridis (efficacy in %) ([7]; application rate 80 g/ha): 100%
Pharbitis purpurea (efficacy in %) [8]: 100%
Echinochloa crus-galli (efficacy in %) [9]: 80%
Abutilon theophrasti (efficacy in %) [10]: 100%
Amaranthus retroflexus (efficacy in %) ([11]; application rate 20 g/ha): 100%
Amaranthus retroflexus (efficacy in %) ([11]; application rate 80 g/ha): 100%
Polygonum convolvulus (efficacy in %) ([12]; application rate 20 g/ha): 100%
Polygonum convolvulus (efficacy in %) ([12]; application rate 80 g/ha): 100%
Viola tricolor (efficacy in %) ([13]; application rate 20 g/ha): 100%
Veronica persica (efficacy in %) ([14]; application rate 20 g/ha): 90%
Veronica persica (efficacy in %) ([14]; application rate 80 g/ha): 100%
pest or weed control at 5 g/ha [15]: 80%
pest or weed control at 5 g/ha [16]: 90%
pest or weed control at 5 g/ha [17]: 100%
pest or weed control at 5 g/ha [18]: 100%
pest or weed control at 5 g/ha ([19]; application rate 5 g/ha): 100%
pest or weed control at 5 g/ha [20]: 100%
Brassica napus (efficacy in %) [21]: 0%
Glycine max (efficacy in %) [22]: 0%
Triticum aestivum (efficacy in %) [23]: 20%
Zea mays (efficacy in %) ([24]; application rate 20 g/ha): 0%
Zea mays (efficacy in %) ([24]; application rate 80 g/ha): 20%

CCOC(=O)COc1ncccc1Sc1cc(-n2c(=O)cc(C(F)(F)F)n(N)c2=O)c(F)cc1Cl [I.1-442, Ethyl {[3-({5-[3-amino-2,6-dioxo-4-(trifluoromethyl)-3,6-dihydropyrimidin-1(2H)-yl]-2-chloro-4-fluorophenyl}sulfanyl)pyridin-2-yl]oxy}acetate]
Brassica napus (efficacy in %) ([1]; application rate 1.25 g/ha): 10%
Glycine max (efficacy in %) ([25]; application rate 1.25 g/ha): 10%
Glycine max (efficacy in %) ([25]; application rate 5 g/ha): 20%
Oryza sativa (efficacy in %) ([3]; application rate 1.25 g/ha): 10%
Oryza sativa (efficacy in %) ([3]; application rate 5 g/ha): 20%
Zea mays (efficacy in %) [26]: 20%
Lolium rigidum (efficacy in %) [27]: 100%
Alopecurus myosuroides (efficacy in %) [4]: 90%
Digitaria sanguinalis (efficacy in %) ([5]; application rate 20 g/ha): 100%
Digitaria sanguinalis (efficacy in %) ([5]; application rate 80 g/ha): 100%
Matricaria inodora (efficacy in %) ([6]; application rate 20 g/ha): 100%
Matricaria inodora (efficacy in %) ([6]; application rate 80 g/ha): 100%
Setaria viridis (efficacy in %) ([7]; application rate 20 g/ha): 90%
Setaria viridis (efficacy in %) ([7]; application rate 80 g/ha): 100%
Pharbitis purpurea (efficacy in %) [8]: 100%
Echinochloa crus-galli (efficacy in %) [9]: 100%
Abutilon theophrasti (efficacy in %) [10]: 100%
Amaranthus retroflexus (efficacy in %) ([11]; application rate 20 g/ha): 100%
Amaranthus retroflexus (efficacy in %) ([11]; application rate 80 g/ha): 100%
Polygonum convolvulus (efficacy in %) ([12]; application rate 20 g/ha): 90%
Polygonum convolvulus (efficacy in %) ([12]; application rate 80 g/ha): 100%
Viola tricolor (efficacy in %) ([13]; application rate 20 g/ha): 100%
Viola tricolor (efficacy in %) ([13]; application rate 80 g/ha): 100%
Veronica persica (efficacy in %) ([14]; application rate 20 g/ha): 80%
Veronica persica (efficacy in %) ([14]; application rate 80 g/ha): 100%
Stellaria media (efficacy in %) [28]: 100%
pest or weed control at 20 g/ha [29]: 100%
pest or weed control at 5 g/ha [15]: 90%
pest or weed control at 20 g/ha ([15]; application rate 20 g/ha): 100%
pest or weed control at 5 g/ha [16]: 100%
pest or weed control at 20 g/ha ([16]; application rate 20 g/ha): 100%
pest or weed control at 5 g/ha [17]: 100%
pest or weed control at 5 g/ha ([30]; application rate 5 g/ha): 100%
pest or weed control at 20 g/ha ([30]; application rate 20 g/ha): 100%
pest or weed control at 5 g/ha [18]: 100%
pest or weed control at 20 g/ha ([18]; application rate 20 g/ha): 100%
pest or weed control at 5 g/ha ([31]; application rate 5 g/ha): 100%
pest or weed control at 20 g/ha ([31]; application rate 20 g/ha): 100%
pest or weed control at 20 g/ha ([19]; application rate 20 g/ha): 100%
pest or weed control at 5 g/ha ([32]; application rate 5 g/ha): 100%
pest or weed control at 20 g/ha ([32]; application rate 20 g/ha): 100%
pest or weed control at 5 g/ha [20]: 100%
pest or weed control at 20 g/ha ([20]; application rate 20 g/ha): 100%
Brassica napus (efficacy in %) [21]: 0%
Triticum aestivum (efficacy in %) [23]: 10%
Zea mays (efficacy in %) ([24]; application rate 20 g/ha): 0%
